The values below come from ChEMBL document CHEMBL5465560, “Selectivity Literature for EUbOPEN Chemogenomic Library” (2024).

For experiment [1], the target named is Ribosomal protein S6 kinase alpha-1 (Homo sapiens, UniProt Q15418). The following applies: at 10 µM.
Experiment [2] deals with T1, Homeodomain-interacting protein kinase 4 (Homo sapiens) (UniProt Q8NE63).
T1 sequence (whole entry): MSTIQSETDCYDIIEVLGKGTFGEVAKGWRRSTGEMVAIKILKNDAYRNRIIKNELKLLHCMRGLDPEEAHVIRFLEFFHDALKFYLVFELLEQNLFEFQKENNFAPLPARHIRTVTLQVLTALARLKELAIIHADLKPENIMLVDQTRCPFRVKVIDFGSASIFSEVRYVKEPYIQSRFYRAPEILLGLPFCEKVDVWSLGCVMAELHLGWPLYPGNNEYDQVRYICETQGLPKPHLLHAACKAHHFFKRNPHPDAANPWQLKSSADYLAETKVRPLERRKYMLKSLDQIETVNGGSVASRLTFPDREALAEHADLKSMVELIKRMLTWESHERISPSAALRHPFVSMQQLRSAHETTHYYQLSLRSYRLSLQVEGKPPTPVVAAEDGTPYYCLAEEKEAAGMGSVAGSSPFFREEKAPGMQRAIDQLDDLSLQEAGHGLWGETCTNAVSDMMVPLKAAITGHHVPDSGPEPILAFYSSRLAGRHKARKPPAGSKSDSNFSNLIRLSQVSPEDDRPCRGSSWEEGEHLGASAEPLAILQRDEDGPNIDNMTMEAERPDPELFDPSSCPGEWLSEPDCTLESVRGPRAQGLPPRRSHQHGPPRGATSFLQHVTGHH
Briefly: Selectivity interaction (KinomeScan (DiscoverX)) EUB0001079a HIPK4. The following applies: at 1 µM.

Experiment [3] has as its target T2, Aurora kinase A (Homo sapiens) (UniProt O14965).
T2 sequence (whole entry): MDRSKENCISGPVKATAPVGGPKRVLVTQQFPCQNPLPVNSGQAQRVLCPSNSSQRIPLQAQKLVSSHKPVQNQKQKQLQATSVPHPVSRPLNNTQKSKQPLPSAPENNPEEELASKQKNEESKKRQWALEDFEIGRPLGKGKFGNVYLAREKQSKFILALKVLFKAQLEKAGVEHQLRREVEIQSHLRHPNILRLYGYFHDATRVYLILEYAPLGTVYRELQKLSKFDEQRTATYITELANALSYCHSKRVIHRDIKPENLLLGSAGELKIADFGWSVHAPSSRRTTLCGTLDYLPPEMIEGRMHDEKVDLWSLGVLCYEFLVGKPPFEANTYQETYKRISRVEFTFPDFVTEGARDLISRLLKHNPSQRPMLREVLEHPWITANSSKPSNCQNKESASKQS
Put plainly: Selectivity interaction (KinomeScan (DiscoverX)) EUB0001079a STK6. The following applies: at 1 µM.

The target of experiment [4] is T3, Histone-lysine N-methyltransferase EHMT2 (Homo sapiens) (UniProt Q96KQ7).
T3 sequence (whole entry): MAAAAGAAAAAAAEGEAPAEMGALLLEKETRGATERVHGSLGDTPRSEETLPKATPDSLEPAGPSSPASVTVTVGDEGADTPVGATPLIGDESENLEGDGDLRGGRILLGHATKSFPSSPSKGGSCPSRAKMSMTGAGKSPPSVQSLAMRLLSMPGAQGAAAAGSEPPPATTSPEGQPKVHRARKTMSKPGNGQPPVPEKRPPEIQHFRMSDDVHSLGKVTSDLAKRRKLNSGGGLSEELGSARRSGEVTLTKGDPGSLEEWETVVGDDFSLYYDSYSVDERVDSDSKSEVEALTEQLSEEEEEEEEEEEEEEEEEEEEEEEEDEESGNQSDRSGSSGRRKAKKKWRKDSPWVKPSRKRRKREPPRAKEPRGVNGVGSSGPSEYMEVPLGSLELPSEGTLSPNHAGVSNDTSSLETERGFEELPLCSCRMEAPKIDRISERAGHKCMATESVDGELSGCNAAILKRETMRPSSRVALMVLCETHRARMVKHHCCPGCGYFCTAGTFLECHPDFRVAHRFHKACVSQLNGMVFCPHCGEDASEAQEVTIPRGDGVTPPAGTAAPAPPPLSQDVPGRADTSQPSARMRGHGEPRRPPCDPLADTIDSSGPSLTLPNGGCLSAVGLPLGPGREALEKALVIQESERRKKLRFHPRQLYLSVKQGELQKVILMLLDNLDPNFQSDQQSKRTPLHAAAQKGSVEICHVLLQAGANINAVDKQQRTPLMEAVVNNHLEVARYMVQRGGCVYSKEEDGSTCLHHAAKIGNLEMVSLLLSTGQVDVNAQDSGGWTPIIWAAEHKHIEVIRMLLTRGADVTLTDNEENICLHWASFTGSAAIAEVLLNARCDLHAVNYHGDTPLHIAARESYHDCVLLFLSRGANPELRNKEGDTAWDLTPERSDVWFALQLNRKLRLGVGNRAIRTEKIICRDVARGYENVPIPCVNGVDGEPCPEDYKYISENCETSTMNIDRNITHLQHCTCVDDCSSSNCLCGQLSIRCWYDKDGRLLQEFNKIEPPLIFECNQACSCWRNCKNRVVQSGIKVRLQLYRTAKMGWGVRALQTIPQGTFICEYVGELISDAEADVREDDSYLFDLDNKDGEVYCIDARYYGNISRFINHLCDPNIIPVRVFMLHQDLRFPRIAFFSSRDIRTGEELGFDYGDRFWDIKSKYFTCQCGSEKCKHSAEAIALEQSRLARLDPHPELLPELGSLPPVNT
Put plainly: Selectivity interaction (Methyltransferase screen (radiometric assays, panel of 8 PRMTs, 21 protein lysine methyltransferases, 3 DNA methyltransferases, and one RNA methyltransferase)) EUB0000271b EHMT2.

The target of experiment [5] is Sodium-dependent noradrenaline transporter (Homo sapiens, UniProt P23975). Briefly: Selectivity interaction (Panel of non-epigenetic targets (kinases, GPCRs, ion channels, and transporters, Eurofins) ) EUB0000271b SLC6A2. The following applies: at 1 µM.
Sequence of Sodium-dependent noradrenaline transporter (P23975 whole entry): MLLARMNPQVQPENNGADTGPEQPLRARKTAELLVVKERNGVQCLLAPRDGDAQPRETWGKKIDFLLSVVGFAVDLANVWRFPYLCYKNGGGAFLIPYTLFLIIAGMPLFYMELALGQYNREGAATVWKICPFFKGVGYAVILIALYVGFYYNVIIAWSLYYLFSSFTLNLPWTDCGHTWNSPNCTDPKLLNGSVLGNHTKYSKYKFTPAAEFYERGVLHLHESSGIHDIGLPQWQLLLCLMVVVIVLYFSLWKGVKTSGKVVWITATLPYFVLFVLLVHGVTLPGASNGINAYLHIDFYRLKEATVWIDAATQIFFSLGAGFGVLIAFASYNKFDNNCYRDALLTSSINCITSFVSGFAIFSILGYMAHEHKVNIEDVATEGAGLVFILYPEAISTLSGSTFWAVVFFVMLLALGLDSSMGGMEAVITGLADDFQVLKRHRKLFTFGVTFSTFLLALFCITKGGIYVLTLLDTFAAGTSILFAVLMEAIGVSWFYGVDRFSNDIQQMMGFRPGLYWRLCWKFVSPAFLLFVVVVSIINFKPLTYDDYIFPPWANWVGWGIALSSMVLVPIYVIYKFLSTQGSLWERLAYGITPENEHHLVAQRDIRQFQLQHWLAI
Experiment [6] relates to Hepatocyte growth factor receptor (Homo sapiens), P08581 [D1228H]. Briefly: Selectivity interaction (LanthaScreen Eu Kinase Binding Assay) EUB0001632a MET. The following applies: at 10 µM. On the technique in general: TR-FRET usually uses a lanthanide donor and a delayed reading to cut background.
Sequence of Hepatocyte growth factor receptor (Homo sapiens), P08581 [D1228H] (P08581 whole entry D1228H): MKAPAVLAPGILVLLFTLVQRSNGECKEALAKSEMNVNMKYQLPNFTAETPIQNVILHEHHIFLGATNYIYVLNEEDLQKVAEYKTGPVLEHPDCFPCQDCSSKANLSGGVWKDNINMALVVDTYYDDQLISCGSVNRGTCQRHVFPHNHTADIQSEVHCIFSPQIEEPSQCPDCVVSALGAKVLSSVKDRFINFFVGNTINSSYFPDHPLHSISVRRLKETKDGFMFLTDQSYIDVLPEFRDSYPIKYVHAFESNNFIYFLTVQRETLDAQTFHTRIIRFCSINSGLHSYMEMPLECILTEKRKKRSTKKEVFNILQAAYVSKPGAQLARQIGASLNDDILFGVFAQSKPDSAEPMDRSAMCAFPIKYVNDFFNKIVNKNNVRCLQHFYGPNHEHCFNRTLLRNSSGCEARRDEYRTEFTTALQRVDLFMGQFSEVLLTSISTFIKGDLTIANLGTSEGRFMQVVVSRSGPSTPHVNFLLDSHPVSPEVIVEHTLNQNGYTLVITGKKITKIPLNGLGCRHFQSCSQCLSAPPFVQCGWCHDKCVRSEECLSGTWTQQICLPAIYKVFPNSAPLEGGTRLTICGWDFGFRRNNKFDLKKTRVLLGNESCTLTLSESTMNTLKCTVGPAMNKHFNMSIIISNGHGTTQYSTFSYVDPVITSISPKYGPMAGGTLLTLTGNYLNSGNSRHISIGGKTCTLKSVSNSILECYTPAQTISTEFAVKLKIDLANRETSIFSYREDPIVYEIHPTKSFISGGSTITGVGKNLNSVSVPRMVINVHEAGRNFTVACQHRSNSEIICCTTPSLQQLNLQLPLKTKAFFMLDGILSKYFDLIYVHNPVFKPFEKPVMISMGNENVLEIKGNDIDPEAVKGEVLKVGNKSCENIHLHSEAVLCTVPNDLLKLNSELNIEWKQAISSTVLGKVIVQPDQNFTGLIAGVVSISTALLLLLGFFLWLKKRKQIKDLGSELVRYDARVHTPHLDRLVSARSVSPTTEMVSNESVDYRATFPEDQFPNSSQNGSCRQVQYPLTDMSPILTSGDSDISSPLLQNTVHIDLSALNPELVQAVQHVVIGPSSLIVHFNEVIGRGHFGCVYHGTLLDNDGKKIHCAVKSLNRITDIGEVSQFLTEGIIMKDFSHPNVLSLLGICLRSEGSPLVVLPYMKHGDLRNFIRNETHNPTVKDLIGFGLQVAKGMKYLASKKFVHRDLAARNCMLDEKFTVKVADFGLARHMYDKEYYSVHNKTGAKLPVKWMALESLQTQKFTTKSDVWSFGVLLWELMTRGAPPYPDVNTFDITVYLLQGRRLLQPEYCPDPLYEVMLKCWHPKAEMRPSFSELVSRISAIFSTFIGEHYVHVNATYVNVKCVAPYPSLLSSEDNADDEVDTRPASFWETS
The target of experiment [7] is Tyrosine-protein kinase ABL2 (Homo sapiens, UniProt P42684). Briefly: Selectivity interaction (Kinase panel (Z-LYTE Assay)) EUB0001632a ABL2. The following applies: at 10 µM.
Sequence of Tyrosine-protein kinase ABL2 (P42684 whole entry): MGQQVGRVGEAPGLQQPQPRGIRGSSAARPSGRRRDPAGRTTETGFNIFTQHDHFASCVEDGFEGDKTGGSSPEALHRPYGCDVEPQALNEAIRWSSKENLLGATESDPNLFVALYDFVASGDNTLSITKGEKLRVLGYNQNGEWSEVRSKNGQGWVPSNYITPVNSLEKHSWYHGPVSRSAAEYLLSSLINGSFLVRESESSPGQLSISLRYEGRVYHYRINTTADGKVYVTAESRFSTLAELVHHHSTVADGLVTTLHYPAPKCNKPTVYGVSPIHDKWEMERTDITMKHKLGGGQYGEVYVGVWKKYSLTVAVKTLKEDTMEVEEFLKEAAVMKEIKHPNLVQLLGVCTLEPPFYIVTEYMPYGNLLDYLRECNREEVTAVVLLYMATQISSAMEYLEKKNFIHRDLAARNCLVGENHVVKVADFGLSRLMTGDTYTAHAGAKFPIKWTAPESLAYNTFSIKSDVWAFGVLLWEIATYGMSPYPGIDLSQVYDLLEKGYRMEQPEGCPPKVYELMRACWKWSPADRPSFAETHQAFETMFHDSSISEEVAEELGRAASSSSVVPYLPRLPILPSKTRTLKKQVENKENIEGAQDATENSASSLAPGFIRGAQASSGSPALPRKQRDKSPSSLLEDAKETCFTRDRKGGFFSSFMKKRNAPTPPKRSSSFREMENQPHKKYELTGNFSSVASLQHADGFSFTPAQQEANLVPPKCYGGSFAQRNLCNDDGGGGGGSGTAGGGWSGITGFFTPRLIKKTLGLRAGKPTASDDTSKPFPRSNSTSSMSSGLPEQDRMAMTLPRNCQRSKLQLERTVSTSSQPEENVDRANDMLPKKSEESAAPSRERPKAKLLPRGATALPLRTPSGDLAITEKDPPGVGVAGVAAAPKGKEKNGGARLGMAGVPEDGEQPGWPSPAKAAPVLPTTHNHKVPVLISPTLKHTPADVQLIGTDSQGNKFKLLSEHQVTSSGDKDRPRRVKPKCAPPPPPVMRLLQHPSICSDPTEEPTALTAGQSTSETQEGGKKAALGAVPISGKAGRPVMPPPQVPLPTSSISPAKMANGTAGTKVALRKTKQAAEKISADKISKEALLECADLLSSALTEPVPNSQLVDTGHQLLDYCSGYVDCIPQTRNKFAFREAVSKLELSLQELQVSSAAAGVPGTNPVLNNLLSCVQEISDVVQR
In experiment [8] the target is Calcium/calmodulin-dependent protein kinase kinase 2 (Homo sapiens) (UniProt Q96RR4). Put plainly: Selectivity interaction (KinomeScan (DiscoverX)) EUB0001619a CAMKK2. The following applies: at 1 µM.
Sequence of Calcium/calmodulin-dependent protein kinase kinase 2 (Homo sapiens) (Q96RR4 2-588 limits assumed): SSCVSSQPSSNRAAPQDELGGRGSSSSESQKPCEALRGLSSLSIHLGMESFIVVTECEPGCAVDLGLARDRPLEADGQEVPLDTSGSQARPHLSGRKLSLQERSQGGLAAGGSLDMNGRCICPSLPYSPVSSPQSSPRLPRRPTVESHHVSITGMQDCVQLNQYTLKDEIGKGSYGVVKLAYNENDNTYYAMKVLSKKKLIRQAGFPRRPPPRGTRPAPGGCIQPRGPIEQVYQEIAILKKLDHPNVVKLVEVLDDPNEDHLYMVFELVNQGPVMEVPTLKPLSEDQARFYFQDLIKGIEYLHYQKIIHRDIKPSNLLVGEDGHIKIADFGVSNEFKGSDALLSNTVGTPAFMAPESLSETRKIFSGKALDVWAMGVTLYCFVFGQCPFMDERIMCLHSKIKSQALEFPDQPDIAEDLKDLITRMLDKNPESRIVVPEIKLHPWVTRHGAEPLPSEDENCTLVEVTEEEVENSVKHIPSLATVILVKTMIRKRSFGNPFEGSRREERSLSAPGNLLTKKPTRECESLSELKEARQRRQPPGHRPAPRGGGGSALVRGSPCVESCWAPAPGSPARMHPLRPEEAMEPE

Sequence of Ribosomal protein S6 kinase alpha-1 (Q15418 whole entry): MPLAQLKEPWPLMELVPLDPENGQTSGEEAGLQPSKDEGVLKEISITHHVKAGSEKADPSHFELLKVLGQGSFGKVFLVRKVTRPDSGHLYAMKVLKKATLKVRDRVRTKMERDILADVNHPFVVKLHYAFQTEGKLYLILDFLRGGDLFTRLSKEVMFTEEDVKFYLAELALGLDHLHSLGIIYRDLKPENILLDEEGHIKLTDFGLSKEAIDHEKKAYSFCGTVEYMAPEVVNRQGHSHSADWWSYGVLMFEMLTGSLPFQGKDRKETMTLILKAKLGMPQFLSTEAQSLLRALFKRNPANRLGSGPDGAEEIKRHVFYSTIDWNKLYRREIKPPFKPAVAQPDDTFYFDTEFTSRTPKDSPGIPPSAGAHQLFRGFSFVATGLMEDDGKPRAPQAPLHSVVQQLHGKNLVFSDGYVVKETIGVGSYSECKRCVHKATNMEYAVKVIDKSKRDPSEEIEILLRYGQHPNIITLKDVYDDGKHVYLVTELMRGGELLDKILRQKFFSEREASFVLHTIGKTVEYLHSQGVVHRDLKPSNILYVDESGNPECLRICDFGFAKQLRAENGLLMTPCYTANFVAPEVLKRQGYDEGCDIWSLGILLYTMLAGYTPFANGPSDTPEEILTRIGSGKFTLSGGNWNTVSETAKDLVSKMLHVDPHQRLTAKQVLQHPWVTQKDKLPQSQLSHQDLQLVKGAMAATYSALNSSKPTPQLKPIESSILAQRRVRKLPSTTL

Turning to `Cc1cc([C@@H](C)Nc2ccccc2C(=O)O)c2nc(N3CCOCC3)cc(=O)n2c1` [AZD-6482], the % of control in experiment [1] worked out at 84%.
As for `Nc1cnc(N2CCc3cc(S(=O)(=O)Nc4c(F)cc(Cl)cc4F)cc(N4CCCC4=O)c32)nc1` [TP-020n], the % of control in experiment [2] and in experiment [3] was 100% each time.
Take `Cc1cc(C)cc([C@@H]2c3cc(C)ccc3NC(=O)CN2C(=O)c2ccc(Br)s2)c1`: the % of activity in experiment [4] (at 1 µM) is 96%; in experiment [4] (at 10 µM), 96.3%. For the same compound, the % of inhibition in experiment [5] was -4%.
Turning to `Cn1cc(-n2cnc3c(NCc4nc5cc(Cl)c(Cl)cc5[nH]4)nc(N4CCOCC4)nc32)cn1`, the % of inhibition in experiment [6] was -208%. Further, in experiment [7], the % of control is 6.33%.
In the case of `N#Cc1cccc(-c2c[nH]c3ncnc(N4CCOCC4)c23)c1`, in experiment [8], the % of control is 78%.
